Measured values as given in US20230372318A1, “METHODS FOR TREATING A SUBJECT HAVING MULTIPLE SYSTEM ATROPHY” (Theravance Biopharma R&D IP, LLC, priority 2022, published 2023).

Tests used:
rat native NET = test: [3H]-NE uptake inhibition, rat cortical synaptosomes; type: biochemical; conditions: [3H]-NE vs [3H]-5-HT uptake
Text: (§1) The in vitro pharmacology of ampreloxetine at human recombinant and rat native monoamine transporters was characterized as described in Smith et al., Inter. J. Neuropsychopharmcol. (2015) 1-11; and Tsuruda et al., J. Pharmacol. Toxicol. Meth. (2010) 61:192-204. See also, e.g., U.S. Pat. Nos. 8,304,432 B2 and 8,304,433 B2. Radioligands were sourced commercially (Perkin Elmer LifeSciences or GE Healthcare Life Sciences).
(§2) Briefly, membranes prepared from HEK293 (Human Embryonic Kidney 293) or CHO-K1 (Chinese Hamster Ovary-K1) cells stably transfected with human recombinant SERT (HEK293-hSERT), NET (HEK293-hNET), or DAT (CHO-K1-hDAT) were incubated for 1 hr at 22° C. in the absence, or presence, of 4-[2-(2,4,6-trifluorophenoxymethyl)phenyl]piperidine and [^3H]-citalopram (1.0 nM) for SERT, [^3H]-nisoxetine (2.0 nM) for NET, and [^3H]-WIN35428 (3.0 nM) for DAT in 50 mM Tris-HCl, 120 mM NaCl, 5 mM KCl, 0.025% BSA, 100 μM ascorbic acid, pH 7.4. Rat cortical membrane preparations were incubated with [^3H]-citalopram (2.0 nM) for SERT or [^3H]-nisoxetine (4.0 nM) for NET for 1 hr at 22° C. […] Binding and uptake assays were terminated by rapid filtration and radioactivity determined by liquid scintillation spectroscopy. […] Selectivity for NET (rounded to one significant figure) was determined as follows: […]

rat native DAT = biological target: T1, rat native DAT (Rattus norvegicus, UniProt P23977); test: [3H]-DA uptake inhibition, rat striatal synaptosomes; type: biochemical; conditions: mean
T1 construct: human recombinant and rat native monoamine transporters; from tissue; host or cells: rat striatum (synaptosomes)
Text: as §1, §2

human recombinant DAT = biological target: T2, human recombinant DAT (Homo sapiens, UniProt Q01959); test: Radioligand binding, [3H]-WIN35428, CHO-K1-hDAT membranes; conditions: mean
T2 construct: expressed in transfected cells; host or cells: CHO-K1
Text: as §1, §2

rat native SERT = biological target: T3, rat native SERT (Rattus norvegicus, UniProt P31652); test: Radioligand binding, [3H]-citalopram, rat cortical membranes; conditions: mean (95% confidence intervals)
T3 construct: human recombinant and rat native monoamine transporters; from tissue; host or cells: rat cerebral cortex (membranes; synaptosomes)
Text: as §1, §2

norepinephrine (NE) = test: Plasma norepinephrine levels in Examples 6 and 7; type: in vivo, human; conditions: for NE at End of Ex. 6/Start of Ex. 7: 4 weeks; for NE at End of Ex. 6/Start of Ex. 7 / NE on Day 29 of Ex. 7 Open Label: mean ± SD
Method: For pharmacodynamic assessments, blood samples for pharmacodynamic markers (including [dihydroxyphenylglycol] DHPG and NE) were collected after the subject had been seated for approximately 30 minutes.
Blood samples for pharmacodynamic markers ([dihydroxyphenylglycol] DHPG and NE) were collected at select study visits as defined in the Schedule of Study Procedures after the subject had been seated for 30 minutes. This was applicable to all consenting subjects.
Moreover, it has also been discovered that the supine norepinephrine level in a subject having multiple system atrophy continues to increase for at least about 8 weeks when the subject is treated daily with ampreloxetine as shown in Table 8:
Before treatment with ampreloxetine, supine norepinephrine (NE) levels in subjects with MSA are less than about 350 pg/mL. After about 8 weeks of treatment, supine norepinephrine levels are greater than about 500 pg/mL. Supine norepinephrine levels were determined using standard procedures (see, e.g., Goldstein et al., Annals of Neurology, 1989:26(4) 558-563; and Palma et al., Neurology, 2018:91(16) e1539-e1544).

healthy subjects = conditions: single dose up to 50 mg and multiple doses up to 20 mg once per day; cited from earlier work
[1] = tested on: subjects with symptomatic nOH; conditions: cited from earlier work

T1 sequence (P23977 whole entry): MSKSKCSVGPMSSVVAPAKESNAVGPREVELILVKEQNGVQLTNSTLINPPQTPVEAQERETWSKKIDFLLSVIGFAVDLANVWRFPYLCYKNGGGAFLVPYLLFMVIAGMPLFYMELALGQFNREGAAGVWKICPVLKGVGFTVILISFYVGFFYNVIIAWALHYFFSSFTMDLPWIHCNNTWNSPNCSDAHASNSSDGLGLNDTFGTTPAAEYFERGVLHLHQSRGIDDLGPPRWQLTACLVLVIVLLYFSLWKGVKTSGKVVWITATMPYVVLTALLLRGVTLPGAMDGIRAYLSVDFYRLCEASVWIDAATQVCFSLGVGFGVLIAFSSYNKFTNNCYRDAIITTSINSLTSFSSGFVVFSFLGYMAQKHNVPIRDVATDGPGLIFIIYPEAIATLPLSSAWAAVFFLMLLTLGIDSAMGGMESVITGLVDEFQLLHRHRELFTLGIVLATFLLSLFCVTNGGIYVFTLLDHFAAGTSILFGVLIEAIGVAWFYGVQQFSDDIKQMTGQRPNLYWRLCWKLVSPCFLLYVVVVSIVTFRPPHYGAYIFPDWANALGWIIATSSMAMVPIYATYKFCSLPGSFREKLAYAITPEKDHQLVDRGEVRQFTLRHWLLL
T2 sequence (Q01959 whole entry): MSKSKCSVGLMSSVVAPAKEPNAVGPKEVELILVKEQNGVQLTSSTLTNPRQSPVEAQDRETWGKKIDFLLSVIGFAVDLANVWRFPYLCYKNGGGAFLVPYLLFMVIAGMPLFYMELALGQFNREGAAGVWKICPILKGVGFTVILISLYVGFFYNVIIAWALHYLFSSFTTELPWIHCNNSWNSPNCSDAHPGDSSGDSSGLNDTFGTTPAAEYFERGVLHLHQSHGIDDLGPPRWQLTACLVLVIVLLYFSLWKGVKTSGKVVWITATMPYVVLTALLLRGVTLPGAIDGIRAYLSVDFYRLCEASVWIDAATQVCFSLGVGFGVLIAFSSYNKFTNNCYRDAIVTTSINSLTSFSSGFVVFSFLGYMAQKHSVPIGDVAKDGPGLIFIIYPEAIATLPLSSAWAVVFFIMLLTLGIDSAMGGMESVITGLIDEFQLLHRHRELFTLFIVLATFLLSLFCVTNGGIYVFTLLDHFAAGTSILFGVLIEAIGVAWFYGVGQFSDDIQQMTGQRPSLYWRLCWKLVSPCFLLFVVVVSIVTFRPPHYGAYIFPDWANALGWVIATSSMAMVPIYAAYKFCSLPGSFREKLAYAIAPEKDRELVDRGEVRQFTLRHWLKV
T3 sequence (P31652 whole entry): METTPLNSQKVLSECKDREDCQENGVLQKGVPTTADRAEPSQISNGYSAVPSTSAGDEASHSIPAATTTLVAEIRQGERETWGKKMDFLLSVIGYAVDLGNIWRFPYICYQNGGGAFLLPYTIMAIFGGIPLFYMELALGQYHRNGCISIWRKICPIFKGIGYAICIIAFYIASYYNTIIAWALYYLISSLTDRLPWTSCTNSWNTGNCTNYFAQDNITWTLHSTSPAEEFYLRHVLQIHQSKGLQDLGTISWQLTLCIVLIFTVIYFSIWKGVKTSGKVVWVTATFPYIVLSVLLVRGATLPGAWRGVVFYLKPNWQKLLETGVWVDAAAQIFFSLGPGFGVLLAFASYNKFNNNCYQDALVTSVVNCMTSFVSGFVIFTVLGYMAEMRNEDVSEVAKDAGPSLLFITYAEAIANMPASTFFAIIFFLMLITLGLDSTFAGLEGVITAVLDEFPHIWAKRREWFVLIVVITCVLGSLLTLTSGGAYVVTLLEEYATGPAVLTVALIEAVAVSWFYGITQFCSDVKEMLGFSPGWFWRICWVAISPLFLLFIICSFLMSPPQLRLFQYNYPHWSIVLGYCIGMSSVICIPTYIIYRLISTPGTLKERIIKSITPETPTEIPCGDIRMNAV

Compound: Fc1cc(F)c(OCc2ccccc2C2CCNCC2)c(F)c1 [Ampreloxetine, 4-[2-(2,4,6-trifluorophenoxymethyl)phenyl]piperidine]
- Apparent functional selectivity for NET over SERT (rat native NET): 10 fold
- Neurotransmitter Uptake Inhibition: pIC50, DAT (rat native DAT): 6.9
- Transporter Binding: pKi, DAT (human recombinant DAT): 6.7
- Transporter Binding: pKi, SERT (rat native SERT): 8.5 (8.3, 8.6)
- NE at End of Ex. 6/Start of Ex. 7 (norepinephrine (NE); MSA, Example 6 ampreloxetine 10 mg QD group, start of Ex. 6: 280 ± 138): 439 ± 250 pg/mL
- NE on Day 29 of Ex. 7 Open Label (norepinephrine (NE); MSA, Example 6 ampreloxetine 10 mg QD group, about 8 weeks): 539 ± 361 pg/mL
- NE on Day 29 of Ex. 7 Open Label (norepinephrine (NE); MSA, Example 6 placebo group, received ampreloxetine in open-label part, start of Ex. 7: 291 ± 173): 557 ± 298 pg/mL
- NE at End of Ex. 6/Start of Ex. 7 (norepinephrine (NE); PAF, Example 6 ampreloxetine 10 mg QD group, start of Ex. 6: 232 ± 110): 357 ± 204 pg/mL
- NE on Day 29 of Ex. 7 Open Label (norepinephrine (NE); PAF, Example 6 ampreloxetine 10 mg QD group, about 8 weeks): 455 ± 238 pg/mL
- NE on Day 29 of Ex. 7 Open Label (norepinephrine (NE); PAF, Example 6 placebo group, received ampreloxetine in open-label part, start of Ex. 7: 156 ± 82): 267 ± 87 pg/mL
- NE at End of Ex. 6/Start of Ex. 7 (norepinephrine (NE); PD, Example 6 ampreloxetine 10 mg QD group, start of Ex. 6: 340 ± 237): 407 ± 154 pg/mL
- NE on Day 29 of Ex. 7 Open Label (norepinephrine (NE); PD, Example 6 ampreloxetine 10 mg QD group, about 8 weeks): 552 ± 270 pg/mL
- NE on Day 29 of Ex. 7 Open Label (norepinephrine (NE); PD, Example 6 placebo group, received ampreloxetine in open-label part, start of Ex. 7: 340 ± 266): 443 ± 157 pg/mL
- Supine norepinephrine levels (norepinephrine (NE); subjects with MSA, after about 8 weeks of treatment, before treatment less than about 350): greater than 500 pg/mL
- Safety and tolerability (healthy subjects): generally well tolerated
- Improvement in standing time ([1]; Part A, 4 hours after dosing at 10 mg): approximately 100 seconds
- Dose response of single ascending doses ([1]; Part A, up to 20 mg): no dose response was observed
- SBP following 3 minutes of standing ([1]; Part B, up to 15 mg, 4- and 7-hours post-dose): sustained increase in SBP over baseline
- Improvement from baseline of at least 2 points in OHSA #1 score ([1]; Part C, open-label 3-20 mg once-daily up to 20 weeks): A large proportion of subjects met this endpoint
